Here are results for ten compounds from US7064120B2, “Tricyclic pyridyl carboxamides and derivatives thereof tocolytic oxytocin receptor antagonists” (Wyeth, priority 2001, dated 2006).

Each structure is given as a SMILES string.

T1 sequence (P30518 whole entry): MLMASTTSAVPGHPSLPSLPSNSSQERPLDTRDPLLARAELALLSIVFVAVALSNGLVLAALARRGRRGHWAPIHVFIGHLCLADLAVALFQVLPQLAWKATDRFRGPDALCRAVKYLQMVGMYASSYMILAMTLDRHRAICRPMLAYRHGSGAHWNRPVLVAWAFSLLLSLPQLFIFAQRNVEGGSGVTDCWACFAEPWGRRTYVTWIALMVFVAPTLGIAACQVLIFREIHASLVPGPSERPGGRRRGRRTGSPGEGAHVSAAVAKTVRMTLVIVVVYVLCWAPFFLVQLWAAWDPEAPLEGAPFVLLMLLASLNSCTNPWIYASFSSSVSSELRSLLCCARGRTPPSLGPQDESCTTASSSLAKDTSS

One experiment concerns the target T1, human vasopressin V2 receptor subtype (Homo sapiens, UniProt P30518).
T1 construct: host or cells: CHO cells, stably transfected (pZeoSV vector)
As to the kind of experiment: Vasopressin binding in CHO cell membranes expressing human vasopressin V2 subtype receptors ([3H]arginine vasopressin radioligand binding). The conditions noted are these: 100 nM. The procedure, abridged: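 Membranes from CHO cells stably expressing human V2 receptor (25 to 50 μg protein/well) incubated 60 min at room temperature with [3H]arginine vasopressin in Tris-HCl pH 7.4 buffer with MgCl2, BSA and protease inhibitors. Filtration, scintillation counting; percent inhibition at one concentration or IC50 (nM).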
Turning to `COc1cccc(-c2ccc(C(=O)N3Cc4ccc(C(=O)N(C)CCc5ccccn5)n4Cc4ccccc43)cc2OC)c1` [Example 72, 10-[(2,3′-Dimethoxy-[1,1′-biphenyl]-4-yl)carbonyl]-N-methyl-N-[2-(2-pyridinyl)ethyl]-10,11-dihydro-5H-pyrrolo[2,1-c][1,4]benzodiazepine-3-carboxamide], the inhibition at 0.1 µM was 11%.

On to `COc1ccccc1-c1ccc(C(=O)N2Cc3ccc(C(=O)N4CCN(c5ccccn5)CC4)n3Cc3ccccc32)cc1` [Example 78, {10-[(2′-Methoxy-[1,1′-biphenyl]-4-yl)carbonyl]-10,11-dihydro-5H-pyrrolo[2,1-c][1,4]benzodiazepin-3-yl}[4-(2-pyridinyl)-1-piperazinyl]methanone], for which the inhibition at 0.1 µM was 8%.

As for `COc1ccccc1-c1ccc(C(=O)N2Cc3ccc(C(=O)NCc4ccncc4)n3Cc3ccccc32)cc1OC` [Example 97, 10-[(2,2′-Dimethoxy-[1,1′-biphenyl]-4-yl)carbonyl]-N-(4-pyridinylmethyl)-10,11-dihydro-5H-pyrrolo[2,1-c][1,4]benzodiazepine-3-carboxamide], the inhibition at 0.1 µM stood at 16%.

As to `COc1cccc(-c2cc(OC)c(C(=O)N3Cc4ccc(C(=O)NCc5ccncc5)n4Cc4ccccc43)cc2Cl)c1` [Example 95, 10-[(6-Chloro-3,3′-dimethoxy-[1,1′-biphenyl]-4-yl)carbonyl]-N-(4-pyridinylmethyl)-10,11-dihydro-5H-pyrrolo[2,1-c][1,4]benzodiazepine-3-carboxamide], the inhibition at 0.1 µM was -1%.

As for `O=C(c1ccc2n1Cc1ccccc1N(C(=O)c1ccc(-c3cccc4ccccc34)cc1Cl)C2)N1CCN(c2ccccn2)CC1` [Example 86, {10-[2-Chloro-4-(naphthalen-1-yl)benzoyl]-10,11-dihydro-5H-pyrrolo[2,1-c][1,4]benzodiazepin-3-yl}[4-(2-pyridinyl)-1-piperazinyl]methanone], the inhibition at 0.1 µM is 11%.

As for `COc1cccc(-c2cc(OC)c(C(=O)N3Cc4ccc(C(=O)N(C)CCc5ccccn5)n4Cc4ccccc43)cc2Cl)c1` [Example 70, 10-[(6-Chloro-3,3′-dimethoxy-[1,1′-biphenyl]-4-yl)carbonyl]-N-methyl-N-[2-(2-pyridinyl)ethyl]-10,11-dihydro-5H-pyrrolo[2,1-c][1,4]benzodiazepine-3-carboxamide], the inhibition at 0.1 µM was 10%.

Turning to `COc1ccccc1-c1ccc(C(=O)N2Cc3ccc(C(=O)N(C)CCc4ccccn4)n3Cc3ccccc32)cc1C` [Example 65, 10-[(2′-Methoxy-2-methyl-[1,1′-biphenyl]-4-yl)carbonyl]-N-methyl-N-[2-(2-pyridinyl)ethyl]-10,11-dihydro-5H-pyrrolo[2,1-c][1,4]benzodiazepine-3-carboxamide], the inhibition at 0.1 µM worked out at 16%.

`COc1cc(C(=O)N2Cc3ccc(C(=O)NCc4ccncc4)n3Cc3ccccc32)ccc1-c1ccccc1C` [Example 93, 10-[(2-Methoxy-2′-methyl-[1,1′-biphenyl]-4-yl)carbonyl]-N-(4-pyridinylmethyl)-10,11-dihydro-5H-pyrrolo[2,1-c][1,4]benzodiazepine-3-carboxamide]: the inhibition at 0.1 µM was determined as 27%.

Still in this experiment, the particulars now being: value in parentheses.
`COc1ccccc1-c1ccc(C(=O)N2Cc3ccc(C(=O)N(C)Cc4cccnc4)n3Cc3ccccc32)cc1C` [Example 101, 10-[(2′-Methoxy-2-methyl-[1,1′-biphenyl]-4-yl)carbonyl]-N-methyl-N-(3-pyridinylmethyl)-10,11-dihydro-5H-pyrrolo[2,1-c][1,4]benzodiazepine-3-carboxamide]: the IC50 worked out at 270 nM.

`COc1cc(-c2ccccc2C(F)(F)F)c(Cl)cc1C(=O)N1Cc2ccc(C(=O)N(C)Cc3cccnc3)n2Cc2ccccc21` [Example 5, 10-{[6-Chloro-3-methoxy-2′-trifluoromethyl-[1,1′-biphenyl]-4-yl]carbonyl}-N-methyl-N-(pyridin-3-ylmethyl)-10,11-dihydro-5H-pyrrolo[2,1-c][1,4]benzodiazepine-3-carboxamide]: the IC50 was determined as 433 nM.

The inhibition is the change of the read-out against control, counted positive when it falls. For orientation: IC50 means the concentration at which inhibition is half-maximal.
